The values below are quoted from earlier work in US8017143B2, “Coating agent for drug releasing stent, preparation method thereof and drug releasing stent coated therewith” (Taewoong Medical Co., Ltd, priority 2007, dated 2011).

For the data set the following is noted: esophageal, prostate, rectal, bladder cancer, hepatic, central nervous system and brain tumors.

Structures are written as SMILES.

For `CC(=O)O[C@H]1C(=O)[C@@]2(C)[C@H]([C@H](OC(=O)c3ccccc3)[C@]3(O)C[C@H](OC(=O)[C@H](O)[C@@H](NC(=O)c4ccccc4)c4ccccc4)C(C)=C1C3(C)C)[C@]1(OC(C)=O)CO[C@@H]1C[C@@H]2O` [taxol], the therapeutic effects entry is listed as “excellent therapeutic effects”.
